“And” between values parts separate entries of the source, which are not always exact repeats. Equal entries are not always repeated.
Columns and labels:
HPK1(h) = HPK1(h) (Homo sapiens, UniProt Q92918); experiment: Kinase Profiler; type: biochemical
Description: (§1) The kinase profiler was performed by the company Eurofins (Discovery, Panlab and Cerep).

MINK(h) = MINK(h) (Homo sapiens, UniProt Q8N4C8); experiment: Kinase Profiler; type: biochemical
Description: as §1

EphA7(h) = EphA7(h) (Homo sapiens, UniProt Q15375); experiment: Kinase Profiler; type: biochemical
Description: (§2) Blood cell counts, kinase profiler, safety screen, bacterial cytotoxicity, Ames, micronucleus assays were performed by the company Eurofins (France). The kinase profiler was performed by the company Eurofins (Discovery, Panlab and Cerep).

TTK(h) = TTK(h) (Homo sapiens, UniProt P33981); experiment: Kinase Profiler; type: biochemical
Description: as §1

PRKG2(h) = PRKG2(h) (Homo sapiens, UniProt Q13237); experiment: Kinase Profiler; type: biochemical
Description: as §2

FGFR1(h) = FGFR1(h) (Homo sapiens, UniProt P11362); experiment: Kinase Profiler; type: biochemical
FGFR1(h), sequence (P11362 22-822): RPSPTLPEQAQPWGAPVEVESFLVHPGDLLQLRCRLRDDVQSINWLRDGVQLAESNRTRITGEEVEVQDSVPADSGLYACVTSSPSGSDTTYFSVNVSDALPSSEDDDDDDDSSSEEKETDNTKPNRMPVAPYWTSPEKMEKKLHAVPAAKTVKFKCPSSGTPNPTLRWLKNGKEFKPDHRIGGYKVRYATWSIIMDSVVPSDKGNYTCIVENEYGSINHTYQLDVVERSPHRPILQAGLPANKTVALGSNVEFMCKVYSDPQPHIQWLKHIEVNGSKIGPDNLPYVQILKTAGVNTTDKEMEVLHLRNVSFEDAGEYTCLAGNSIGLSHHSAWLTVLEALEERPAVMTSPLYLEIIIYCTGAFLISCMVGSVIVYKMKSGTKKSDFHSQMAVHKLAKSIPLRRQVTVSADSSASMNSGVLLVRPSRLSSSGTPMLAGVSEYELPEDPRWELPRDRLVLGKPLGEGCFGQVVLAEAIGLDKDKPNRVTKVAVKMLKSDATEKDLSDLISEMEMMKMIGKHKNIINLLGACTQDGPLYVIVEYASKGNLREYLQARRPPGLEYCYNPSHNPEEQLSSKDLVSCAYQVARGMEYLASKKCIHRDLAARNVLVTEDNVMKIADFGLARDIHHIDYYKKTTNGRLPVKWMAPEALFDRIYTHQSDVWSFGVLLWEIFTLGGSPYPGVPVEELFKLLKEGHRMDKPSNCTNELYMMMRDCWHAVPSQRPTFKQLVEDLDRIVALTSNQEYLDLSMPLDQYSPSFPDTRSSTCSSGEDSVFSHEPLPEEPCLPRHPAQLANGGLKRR
Description: as §1

LIMK1(h) = LIMK1(h) (Homo sapiens, UniProt P53667); experiment: Kinase Profiler; type: biochemical
Description: as §1

[1] = tested on: Calcium Channel L-Type, Dihydropyridine; experiment: Safety screen; type: binding, rat
FGFR4(h) = FGFR4(h) (Homo sapiens, UniProt P22455); experiment: Kinase Profiler; type: biochemical
Description: as §1

DCAMKL2(h) = DCAMKL2(h) (Homo sapiens, UniProt Q8N568); experiment: Kinase Profiler; type: biochemical
Description: as §2

Fgr(h) = Fgr(h) (Homo sapiens, UniProt P09769); experiment: Kinase Profiler; type: biochemical
Description: as §1

Nicotinic Acetylcholine = experiment: Safety screen; type: binding, human
Description: (§3) Blood cell counts, kinase profiler, safety screen, bacterial cytotoxicity, Ames, micronucleus assays were performed by the company Eurofins (France).

TA98 = experiment: Bacterial cytotoxicity; type: cell-based
Excerpt: Data S2. Bacterial cytotoxicity of A41.
Test Concentration %Effect Cytotoxicity (% of control)

HIPK1(h) = HIPK1(h) (Homo sapiens, UniProt Q86Z02); experiment: Kinase Profiler; type: biochemical
Description: as §1

WNK2(h) = WNK2(h) (Homo sapiens, UniProt Q9Y3S1); experiment: Kinase Profiler; type: biochemical
WNK2(h), sequence (Q9Y3S1 whole entry): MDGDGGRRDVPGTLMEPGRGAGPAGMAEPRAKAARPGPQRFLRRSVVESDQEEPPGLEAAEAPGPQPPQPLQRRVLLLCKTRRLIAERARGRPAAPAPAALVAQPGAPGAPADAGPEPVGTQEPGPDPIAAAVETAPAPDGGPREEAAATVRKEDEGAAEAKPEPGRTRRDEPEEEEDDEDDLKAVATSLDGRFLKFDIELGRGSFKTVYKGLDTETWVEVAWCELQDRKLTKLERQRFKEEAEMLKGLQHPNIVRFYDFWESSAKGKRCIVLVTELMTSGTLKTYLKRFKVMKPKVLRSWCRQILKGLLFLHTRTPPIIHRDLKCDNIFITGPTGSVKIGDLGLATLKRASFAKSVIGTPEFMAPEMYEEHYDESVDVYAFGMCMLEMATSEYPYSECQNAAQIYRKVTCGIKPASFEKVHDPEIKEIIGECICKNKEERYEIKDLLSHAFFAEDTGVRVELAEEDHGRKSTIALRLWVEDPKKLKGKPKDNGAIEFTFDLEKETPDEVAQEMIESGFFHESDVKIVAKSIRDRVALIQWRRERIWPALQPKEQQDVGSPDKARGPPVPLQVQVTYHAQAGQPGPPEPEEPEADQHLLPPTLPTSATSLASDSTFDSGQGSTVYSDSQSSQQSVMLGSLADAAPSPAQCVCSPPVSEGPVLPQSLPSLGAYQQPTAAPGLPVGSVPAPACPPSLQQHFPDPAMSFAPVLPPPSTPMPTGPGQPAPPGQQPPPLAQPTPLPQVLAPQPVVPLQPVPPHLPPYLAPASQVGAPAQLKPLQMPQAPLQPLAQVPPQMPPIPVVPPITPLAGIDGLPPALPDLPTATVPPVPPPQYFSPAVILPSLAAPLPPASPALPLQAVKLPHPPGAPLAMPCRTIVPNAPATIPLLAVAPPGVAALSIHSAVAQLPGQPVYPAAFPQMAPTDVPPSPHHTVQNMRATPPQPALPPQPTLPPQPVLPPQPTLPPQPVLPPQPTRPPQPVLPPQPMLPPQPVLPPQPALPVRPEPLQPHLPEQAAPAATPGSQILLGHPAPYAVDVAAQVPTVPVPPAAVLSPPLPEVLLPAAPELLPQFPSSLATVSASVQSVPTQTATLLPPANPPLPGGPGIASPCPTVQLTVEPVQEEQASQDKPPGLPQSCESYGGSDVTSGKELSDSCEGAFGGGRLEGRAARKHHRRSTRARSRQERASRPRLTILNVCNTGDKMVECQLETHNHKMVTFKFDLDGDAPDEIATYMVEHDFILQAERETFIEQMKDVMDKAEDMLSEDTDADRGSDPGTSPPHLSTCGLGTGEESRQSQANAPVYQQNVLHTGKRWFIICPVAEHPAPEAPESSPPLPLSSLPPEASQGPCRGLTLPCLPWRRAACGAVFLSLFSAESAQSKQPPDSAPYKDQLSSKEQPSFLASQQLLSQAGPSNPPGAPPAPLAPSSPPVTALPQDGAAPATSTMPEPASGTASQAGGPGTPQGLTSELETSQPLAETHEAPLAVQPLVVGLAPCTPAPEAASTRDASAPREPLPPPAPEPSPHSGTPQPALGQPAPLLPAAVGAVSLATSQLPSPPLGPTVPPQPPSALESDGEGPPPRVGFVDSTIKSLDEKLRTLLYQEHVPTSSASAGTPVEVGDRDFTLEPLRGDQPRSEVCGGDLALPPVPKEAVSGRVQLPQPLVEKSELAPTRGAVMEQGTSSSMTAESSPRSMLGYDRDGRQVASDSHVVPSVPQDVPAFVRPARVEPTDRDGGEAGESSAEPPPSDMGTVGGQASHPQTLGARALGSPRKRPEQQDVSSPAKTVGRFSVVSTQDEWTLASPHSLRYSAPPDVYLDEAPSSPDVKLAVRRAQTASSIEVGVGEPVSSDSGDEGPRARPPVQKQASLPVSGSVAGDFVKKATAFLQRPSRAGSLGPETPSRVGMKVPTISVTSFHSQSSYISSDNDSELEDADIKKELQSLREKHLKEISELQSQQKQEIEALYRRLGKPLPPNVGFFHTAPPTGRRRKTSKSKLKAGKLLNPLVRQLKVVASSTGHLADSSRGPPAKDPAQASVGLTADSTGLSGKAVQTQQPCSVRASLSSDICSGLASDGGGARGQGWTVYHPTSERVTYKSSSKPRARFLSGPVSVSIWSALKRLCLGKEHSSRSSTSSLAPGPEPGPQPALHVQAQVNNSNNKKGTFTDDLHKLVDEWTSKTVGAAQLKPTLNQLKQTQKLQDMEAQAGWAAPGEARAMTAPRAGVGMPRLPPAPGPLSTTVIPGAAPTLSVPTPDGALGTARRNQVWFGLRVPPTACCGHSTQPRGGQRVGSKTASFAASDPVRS
Description: as §1

MDA-MB-468 spheroids = experiment: 3D invasion assay; type: cell-based; settings: 10^-5 M
Description: Figure 5 A41 decreases growth and invasiveness of TNBC cells in vitro (A) Representative images of RAC-GTP levels (red) in MDA-MB-468 Luc cells in the absence (CTL) and presence of EHT1864, NSC23766, or A41 (1 h at 10 μM) (left). Luciferase (Luc, green) was used to detect the cells. RAC-GTP mean fluorescence intensity was quantified inside the cell area (right) (n = 31–37 cells from 3 independent experiments; ∗p < 0.05, ∗∗∗p < 0.001) (scale bars: 10 μm). […] (C) Quantification of colony number of indicated cancer cell lines in the presence of A41 (10 μM) expressed as the percentage of control in the absence of A41. Results shown are representative of N > 3 independent experiments. (D) Immunoblot analysis and corresponding quantification of AKT and P44/42 expression and phosphorylation (pAKT, p44/42) in MDA-MB-468 Luc cells in the absence (−) and presence of NSC23766 or A41 (1 h at 10^−5 M). […] (E) 3D invasion assay of MDA-MB-468 Luc and cancer-associated fibroblasts (CAFs) and corresponding quantification (scale bars: 200 μm). […]
3D-spheroids were obtained, according the protocol previously described,[62] by re-suspending cells at a concentration of 1.25 × 10^4 cells/ml in 20% Methyl-cellulose/80% DMEM 10% FBS. […] Invasion was monitored by fully automated Dmi6000b Wide Field Fluorescence Microscope (Leica Microsystems, Wetzlar, Germany) during 48h.

CK1(y) = experiment: Kinase Profiler; type: biochemical, yeast
Description: as §1

NDR1(h) = NDR1(h) (Homo sapiens, UniProt Q15208); experiment: Kinase Profiler; type: biochemical
Description: as §1

BIKe(h) = BIKe(h) (Homo sapiens, UniProt Q9NSY1); experiment: Kinase Profiler; type: biochemical
Description: as §2

Adrenergic α1A = Adrenergic α1A (Rattus norvegicus, UniProt P43140); experiment: Safety screen; type: binding
Description: as §3

MSK1(h) = MSK1(h) (Homo sapiens, UniProt O75582); experiment: Kinase Profiler; type: biochemical
Description: as §2

DCAMKL1(h) = DCAMKL1(h) (Homo sapiens, UniProt O15075); experiment: Kinase Profiler; type: biochemical
Description: as §2

PAK4(h) = PAK4(h) (Homo sapiens, UniProt O96013); experiment: Kinase Profiler; type: biochemical
PAK4(h), sequence (O96013 whole entry): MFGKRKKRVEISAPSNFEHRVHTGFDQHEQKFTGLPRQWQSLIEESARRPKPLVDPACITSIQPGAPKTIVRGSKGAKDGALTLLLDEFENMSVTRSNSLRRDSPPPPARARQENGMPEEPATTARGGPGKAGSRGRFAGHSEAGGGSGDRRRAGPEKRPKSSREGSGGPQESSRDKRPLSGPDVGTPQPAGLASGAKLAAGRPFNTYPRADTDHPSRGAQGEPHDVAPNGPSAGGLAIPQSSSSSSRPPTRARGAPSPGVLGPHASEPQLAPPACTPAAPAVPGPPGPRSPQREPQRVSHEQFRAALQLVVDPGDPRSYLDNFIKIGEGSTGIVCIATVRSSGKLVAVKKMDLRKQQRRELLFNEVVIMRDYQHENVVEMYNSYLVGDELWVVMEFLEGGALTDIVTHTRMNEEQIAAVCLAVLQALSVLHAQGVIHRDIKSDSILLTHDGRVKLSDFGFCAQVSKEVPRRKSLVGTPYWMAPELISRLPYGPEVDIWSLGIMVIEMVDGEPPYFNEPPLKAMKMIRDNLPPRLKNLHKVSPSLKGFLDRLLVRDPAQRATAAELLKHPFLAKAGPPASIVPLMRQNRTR
Description: as §2

Estrogen ERα = Estrogen ERα (Homo sapiens, UniProt P03372); experiment: Safety screen; type: binding
Estrogen ERα, sequence (P03372 whole entry): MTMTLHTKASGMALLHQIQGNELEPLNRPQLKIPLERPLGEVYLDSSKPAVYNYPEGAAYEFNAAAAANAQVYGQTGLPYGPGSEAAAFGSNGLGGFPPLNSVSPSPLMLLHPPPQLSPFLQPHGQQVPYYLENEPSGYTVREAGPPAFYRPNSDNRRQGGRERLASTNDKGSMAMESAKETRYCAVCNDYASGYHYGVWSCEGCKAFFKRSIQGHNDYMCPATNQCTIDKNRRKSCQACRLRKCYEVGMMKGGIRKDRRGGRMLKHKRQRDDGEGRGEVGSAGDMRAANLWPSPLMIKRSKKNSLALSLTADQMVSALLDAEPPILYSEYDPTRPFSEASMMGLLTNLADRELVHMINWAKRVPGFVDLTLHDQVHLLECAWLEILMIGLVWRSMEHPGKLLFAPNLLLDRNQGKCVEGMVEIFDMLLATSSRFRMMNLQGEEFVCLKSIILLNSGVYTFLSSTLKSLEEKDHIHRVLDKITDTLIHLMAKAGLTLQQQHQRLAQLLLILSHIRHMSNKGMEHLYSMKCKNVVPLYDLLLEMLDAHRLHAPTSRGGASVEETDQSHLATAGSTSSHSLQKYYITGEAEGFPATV
Description: as §3

NIM1(h) = NIM1(h) (Homo sapiens, UniProt Q8IY84); experiment: Kinase Profiler; type: biochemical
Description: as §1

NEK11(h) = NEK11(h) (Homo sapiens, UniProt Q8NG66); experiment: Kinase Profiler; type: biochemical
Description: as §1

HPK1(h), sequence (Q92918 whole entry): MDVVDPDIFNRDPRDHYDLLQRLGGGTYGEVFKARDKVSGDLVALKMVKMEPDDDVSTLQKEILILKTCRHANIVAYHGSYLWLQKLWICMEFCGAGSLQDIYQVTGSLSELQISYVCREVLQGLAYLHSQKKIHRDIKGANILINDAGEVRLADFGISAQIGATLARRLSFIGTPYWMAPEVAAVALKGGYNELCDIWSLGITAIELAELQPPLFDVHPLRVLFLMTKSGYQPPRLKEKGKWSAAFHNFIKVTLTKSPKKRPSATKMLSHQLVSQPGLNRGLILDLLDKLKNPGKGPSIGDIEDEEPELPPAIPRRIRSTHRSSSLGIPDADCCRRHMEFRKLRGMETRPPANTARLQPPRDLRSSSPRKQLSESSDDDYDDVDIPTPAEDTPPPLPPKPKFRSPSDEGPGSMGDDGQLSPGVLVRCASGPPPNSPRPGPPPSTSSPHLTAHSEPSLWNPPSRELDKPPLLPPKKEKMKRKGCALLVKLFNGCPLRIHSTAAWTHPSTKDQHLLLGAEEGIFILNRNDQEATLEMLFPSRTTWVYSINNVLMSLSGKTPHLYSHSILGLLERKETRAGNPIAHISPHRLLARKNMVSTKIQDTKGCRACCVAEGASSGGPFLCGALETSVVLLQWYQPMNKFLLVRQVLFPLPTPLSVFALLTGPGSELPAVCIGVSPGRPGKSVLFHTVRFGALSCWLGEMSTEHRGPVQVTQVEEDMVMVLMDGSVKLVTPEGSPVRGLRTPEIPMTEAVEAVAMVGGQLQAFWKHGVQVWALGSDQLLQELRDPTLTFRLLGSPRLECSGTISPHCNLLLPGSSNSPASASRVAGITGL

COc1ccc(OC)c(NS(=O)(=O)c2ccc(NC(=O)CCSc3ccc(C)cc3)cc2)c1 [Compound A41]
Activity(%) (HPK1(h)): 98%
Activity(%) (MINK(h)): 114%
Activity(%) (EphA7(h)): 108%
Activity(%) (TTK(h)): 103%
Activity(%) (PRKG2(h)): 123%
Activity(%) (FGFR1(h)): 83%
Activity(%) (LIMK1(h)): 113%
% inh. [1]: 85%
Activity(%) (FGFR4(h)): 116%
Activity(%) (DCAMKL2(h)): 103%
Activity(%) (Fgr(h)): 114%
% inh. (Nicotinic Acetylcholine): -3%
%Effect, single replicates (1st, 2nd, 3rd) (TA98; - S9, 1.0E-04 M): 154.6% and 177.5% and 143.7%
Cytotoxicity (% of control), Mean %Effect (TA98; - S9, 1.0E-04 M): 158.6%
%Effect, single replicates (1st, 2nd, 3rd) (TA98; - S9, 1.0E-05 M): 82.4% and 76.9% and 77.8%
Cytotoxicity (% of control), Mean %Effect (TA98; - S9, 1.0E-05 M): 79.0%
%Effect, single replicates (1st, 2nd, 3rd) (TA98; - S9, 1.2E-06 M): 89.7% and 74.1% and 55.8%
Cytotoxicity (% of control), Mean %Effect (TA98; - S9, 1.2E-06 M): 73.2%
%Effect, single replicates (1st, 2nd, 3rd) (TA98; - S9, 2.5E-05 M): 95.2% and 92.4% and 83.3%
Cytotoxicity (% of control), Mean %Effect (TA98; - S9, 2.5E-05 M): 90.3%
%Effect, single replicates (1st, 2nd, 3rd) (TA98; - S9, 2.5E-06 M): 80.5% and 83.3% and 82.4%
Cytotoxicity (% of control), Mean %Effect (TA98; - S9, 2.5E-06 M): 82.0%
%Effect, single replicates (1st, 2nd, 3rd) (TA98; - S9, 5.0E-05 M): 88.8% and 83.3% and 75.9%
Cytotoxicity (% of control), Mean %Effect (TA98; - S9, 5.0E-05 M): 82.7%
%Effect, single replicates (1st, 2nd, 3rd) (TA98; - S9, 5.0E-06 M): 88.8% and 84.2% and 81.4%
Cytotoxicity (% of control), Mean %Effect (TA98; - S9, 5.0E-06 M): 84.8%
%Effect, single replicates (1st, 2nd, 3rd) (TA98; - S9, 6.0E-07 M): 92.4% and 82.4% (2×)
Cytotoxicity (% of control), Mean %Effect (TA98; - S9, 6.0E-07 M): 85.7%
Activity(%) (HIPK1(h)): 110%
Activity(%) (WNK2(h)): 90%
size of the spheroids (MDA-MB-468 spheroids): not affected
migration area of spheroids (MDA-MB-468 spheroids; 3D collagen gel): reduced the migration area
Activity(%) (CK1(y)): 98%
Activity(%) (NDR1(h)): 114%
Activity(%) (BIKe(h)): 112%
% inh. (Adrenergic α1A): 34%
Activity(%) (MSK1(h)): 117%
Activity(%) (DCAMKL1(h)): 99%
Activity(%) (PAK4(h)): 106%
% inh. (Estrogen ERα): 10%
Activity(%) (NIM1(h)): 105%
Activity(%) (NEK11(h)): 99%
